Results reported in US4731241A, “Percutaneous pharmaceuticals preparation for external use” (priority 1983, dated 1988).
Where two headings read alike, the source gives them in different places. Blank lines part the entries; values can stand above or below the compound they belong to.

Legend:
[1] = format: in vivo, male SD-JCL rats; details: rat
Procedure: Five male SD-JCL rats with a mean body weight of 250 g were anesthetized with pentobarbital and the abdominal hairs were clipped with an electric clipper (20 cm^2 5×4 cm). Each of coating samples A though D was then coated on the clipped area. At 1, 2, 4 and 6 hours after application (till 8 hours for evaluation of sustained effect), 0.5 ml of venous blood was collected from the tail vain of each rat and the plasma concentration of molsidomine was determined by the following procedure.
In a mixture of 20 mg of lauric acid, which is a percutaneous absorption promotor according to this invention, and 177 mg of propylene glycol was dissolved 3 mg of clonidine to prepare a coating sample. Using this sample, a percutaneous absorption test was conducted in the same manner as Example 1. The plasma concentration of clonidine was determined by the following procedure.
The venous blood was centrifuged and the plasma was separated. A 0.2 ml of the plasma was extracted with 1 ml of 0.01 N NaOH and 5 ml of chloroform, and from 4 ml of the chloroform layer, the chloroform was evaporated. The residue was dissolved in 0.2 ml of a mixture of 0.05 M sodium acetate, acetonitrile and tetrahydrofuran (70:30:0.2, v/v), and 50 μl of this solution was subjected to liquid chromatography to determine the clonidine concentration. A column of μ-Bondapak C18 was employed. The evaluation of percutaneous absorption was carried out in the same manner as described in Example 1. […] Similar tests were conducted using oleic acid, lauryl alcohol, oleinamide and laurylamine as well but all of them were ineffective for clonidine as […].

[2] = Description: Then, the present inventors attempted at a systematic classification of compounds which could contribute to the percutaneous absorption of molsidomine and performed a series of experiments.
[3] = cited from earlier work

SMILES: Clc1cccc(Cl)c1N=C1NCCN1 [clonidine]
- clonidine detection in the blood ([1]; 3 mg clonidine, 20 mg lauric acid, 177 mg propylene glycol, percutaneous): not detected

SMILES: OCC(O)CO [glycerin]
- promotion of percutaneous absorption of molsidomine ([2]; added to molsidomine): none of them proved meaningfully effective

- effectiveness as percutaneous absorption promoter for clonidine ([1]; percutaneous, clonidine): not effective
SMILES: CCCCCCCCCCCC(=O)O [lauric acid]

SMILES: CCCCCCCCCCCCO [lauryl alcohol]
- effectiveness as percutaneous absorption promoter for clonidine ([1]; percutaneous, clonidine): ineffective

- effectiveness as percutaneous absorption promoter for clonidine ([1]; percutaneous, clonidine): ineffective
SMILES: CCCCCCCCCCCCN [laurylamine]

SMILES: COC(=O)c1ccccc1O [methyl salicylate]
- promotion of percutaneous absorption of molsidomine [2]: none of them proved meaningfully effective

SMILES: CCOC(=O)[N-]c1cn(N2CCOCC2)n[o+]1 [molsidomine, N-ethoxycarbonyl-3-morpholinosydnonimine]
- side effects ([3]; background): few side effects
- vasodilator activity ([3]; background): excellent vasodilator activity
- percutaneous absorption of molsidomine administered alone ([3]; percutaneous route, alone): not well absorbed

- effectiveness as percutaneous absorption promoter for clonidine ([1]; in vivo): ineffective
SMILES: CCCCCCCC/C=C\CCCCCCCC(=O)O [oleic acid]

SMILES: CCCCCCCC/C=C\CCCCCCCC(N)=O [oleinamide]
- effectiveness as percutaneous absorption promoter for clonidine ([1]; percutaneous, clonidine): ineffective

SMILES: CC(O)CO (centres unmarked) [propylene glycol]
- promotion of percutaneous absorption of molsidomine ([2]; added to molsidomine): none of them proved meaningfully effective

SMILES: O=C(O)c1ccccc1O [salicylic acid]
- promotion of percutaneous absorption of molsidomine ([2]; added to molsidomine): none of them proved meaningfully effective

SMILES: OC[C@@H](O)[C@@H](O)[C@H](O)[C@@H](O)CO [sorbitol]
- promotion of percutaneous absorption of molsidomine [2]: none of them proved meaningfully effective
